The source of these data is publication PMC12123458, “Unraveling Small Molecule-Mediated Sirtuin 3 Activation at a Distinct Binding Site for Cardioprotective Therapies” (ACS Central Science, 2025).

The target of one assay is SIRT6 (Homo sapiens, UniProt Q8N6T7). Briefly: SPR binding to SIRT6. As for the experimental part: The affinity of SKLB-11A for SIRT1, SIRT2, SIRT3, SIRT5, and SIRT6 was determined using a Reichert 4SPR system (Reichert Technologies, Depew, NY, USA). Proteins at 200 μg/mL were immobilized on a dextran-coated sensor chip (13206066) until reaching ≥12,000 response units (RUs). A dual-flow channel setup was used, reserving one channel for blank controls. SKLB-11A was introduced at varying concentrations for binding and subsequent dissociation kinetic analysis. Data acquisition was at 25 °C utilizing a PBST running buffer (pH 7.4). The equilibrium dissociation constant (K d) was computed from steady-state affinity measurements using TraceDrawer software.
SIRT6, sequence (Q8N6T7 whole entry, species assumed): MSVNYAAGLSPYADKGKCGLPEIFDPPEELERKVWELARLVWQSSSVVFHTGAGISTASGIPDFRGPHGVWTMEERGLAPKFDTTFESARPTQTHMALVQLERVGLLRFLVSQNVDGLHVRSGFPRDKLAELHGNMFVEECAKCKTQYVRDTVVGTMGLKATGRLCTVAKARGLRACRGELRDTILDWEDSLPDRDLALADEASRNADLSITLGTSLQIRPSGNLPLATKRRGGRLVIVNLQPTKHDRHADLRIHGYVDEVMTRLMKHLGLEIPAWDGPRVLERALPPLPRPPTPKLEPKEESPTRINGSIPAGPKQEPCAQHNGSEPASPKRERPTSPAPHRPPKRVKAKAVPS

In a further assay the target is T1, wild-type SIRT3 (Homo sapiens, UniProt Q9NTG7).
T1 sequence (Q9NTG7 1-399): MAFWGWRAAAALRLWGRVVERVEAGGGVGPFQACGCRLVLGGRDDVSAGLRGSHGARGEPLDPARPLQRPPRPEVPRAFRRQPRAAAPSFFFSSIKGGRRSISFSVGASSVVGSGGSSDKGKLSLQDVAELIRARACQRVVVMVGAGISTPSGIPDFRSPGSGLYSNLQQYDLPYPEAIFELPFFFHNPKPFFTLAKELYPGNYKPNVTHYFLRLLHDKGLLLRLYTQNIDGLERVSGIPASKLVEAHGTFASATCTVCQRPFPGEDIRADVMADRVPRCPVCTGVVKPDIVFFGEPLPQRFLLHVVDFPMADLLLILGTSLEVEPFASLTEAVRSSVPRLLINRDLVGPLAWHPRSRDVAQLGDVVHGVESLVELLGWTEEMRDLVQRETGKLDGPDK
Briefly: BLI binding of SKLB-11A to wild-type SIRT3. The following applies: read-out: dissociation constant, wild-type SIRT3. As for the experimental part: Binding kinetics of SIRT3 with various compounds were quantified using SSA biosensors on an Octet Red96 system (ForteBio). The assays occurred in 96-well plates, recording wavelength shifts in real-time. Ambient temperature was maintained at 25 °C, with plate agitation at 1000 rpm, and a reaction volume of 200 μL per well. SIRT3 protein and test compounds were prepared in phosphate-buffered saline (PBS, pH 7.4). Biosensors were equilibrated in PBS for 10 min before immobilizing SIRT3 (0.9 μg/mL) for 180 s, followed by a 120-s PBS wash. […] Data analysis was performed using ForteBio’s Octet RED software.
(In general: In BLI a coated tip is dipped into the sample, and binding shifts an interference pattern.)

The target of the next assay is T2, SIRT2 (Homo sapiens, UniProt Q8IXJ6).
T2 sequence (Q8IXJ6 1-389): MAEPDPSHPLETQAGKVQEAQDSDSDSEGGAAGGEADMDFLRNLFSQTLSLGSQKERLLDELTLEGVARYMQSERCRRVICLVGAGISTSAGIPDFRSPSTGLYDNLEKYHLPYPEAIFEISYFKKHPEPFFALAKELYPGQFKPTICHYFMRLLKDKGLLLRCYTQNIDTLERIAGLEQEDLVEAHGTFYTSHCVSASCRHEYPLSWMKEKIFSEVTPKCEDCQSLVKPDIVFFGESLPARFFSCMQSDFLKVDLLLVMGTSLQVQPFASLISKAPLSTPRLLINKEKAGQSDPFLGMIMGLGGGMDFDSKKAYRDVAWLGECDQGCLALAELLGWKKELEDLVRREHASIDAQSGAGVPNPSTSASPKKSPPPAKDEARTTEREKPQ
Briefly: Coupled enzymatic assay, acetylated α-tubulin-K25 substrate. The conditions noted are these: 100 μM. The format is biochemical. The source says:
Additionally, we used surface plasmon resonance (SPR) to measure the binding of SKLB-11A to immobilized SIRT3. […] We next evaluated the selectivity of SKLB-11A for different SIRT family members. […] We next examined the functional specificity of SKLB-11A using coupled enzymatic assays with isoform-specific, physiologically relevant substrates: acetylated p53-K381 for SIRT1, acetylated α-tubulin-K25 for SIRT2, acetylated MnSOD-K122 for SIRT3, and succinylated CPS1-K537 for SIRT5 (Supplementary Table S3). […] Using Schrödinger molecular docking simulations, we assessed the binding interactions of SKLB-11A with SIRT isoforms.

The target of another assay is T3, SIRT1 (Rattus norvegicus, UniProt A0A0G2JZ79).
T3 construct: endogenous in cells; host or cells: H9c2
T3 sequence (A0A0G2JZ79 1-741): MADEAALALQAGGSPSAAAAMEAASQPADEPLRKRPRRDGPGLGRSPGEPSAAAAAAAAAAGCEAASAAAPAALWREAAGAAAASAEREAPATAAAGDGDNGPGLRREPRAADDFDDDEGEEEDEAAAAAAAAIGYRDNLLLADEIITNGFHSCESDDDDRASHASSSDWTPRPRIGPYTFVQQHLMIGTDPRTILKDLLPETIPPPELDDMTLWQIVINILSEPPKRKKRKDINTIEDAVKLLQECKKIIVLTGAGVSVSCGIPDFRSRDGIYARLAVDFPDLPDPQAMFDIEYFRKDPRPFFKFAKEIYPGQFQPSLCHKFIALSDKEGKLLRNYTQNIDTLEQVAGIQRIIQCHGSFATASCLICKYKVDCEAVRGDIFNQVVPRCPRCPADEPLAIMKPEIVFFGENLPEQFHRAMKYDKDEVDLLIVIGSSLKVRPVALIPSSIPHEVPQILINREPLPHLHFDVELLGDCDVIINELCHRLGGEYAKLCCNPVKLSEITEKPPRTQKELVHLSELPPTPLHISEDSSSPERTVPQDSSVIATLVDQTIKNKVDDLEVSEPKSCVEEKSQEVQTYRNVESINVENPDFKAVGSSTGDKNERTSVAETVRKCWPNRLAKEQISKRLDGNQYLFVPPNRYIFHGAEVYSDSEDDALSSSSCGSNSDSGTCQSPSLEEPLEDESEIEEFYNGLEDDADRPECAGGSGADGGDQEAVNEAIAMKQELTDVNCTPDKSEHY
Briefly: CETSA of SIRT1 in H9c2 cells. The format is cell-based.

The test system of assay [1] is acetylated MnSOD (K68 and K122) in H9c2 cells. Briefly: Western blot of MnSOD, SIRT3 and acetylated MnSOD in H9c2 cells. The following applies: 24 h. The assay is classed as cell-based. The procedure:
(§1) Proteomic analysis was conducted on H9c2 cells and murine cardiac tissues. Protein lysates were resolved via SDS-PAGE and transferred onto PVDF membranes. […] After washing, membranes were probed with secondary antibodies for 1 h at room temperature. Detection was facilitated by an ECL kit, with densitometry performed using ImageJ software to quantify protein expression, normalized against controls. The antibodies employed included: anti-SIRT3 (2627, Cell Signaling Technology), anti-acetylated lysine (9441, CST), anti-Ac.K68-MnSOD2 (ab137037, Abcam), anti-Ac.K122-MnSOD2 (ab214675, Abcam), anti-MnSOD2 (13141, CST), anti-LC3B (3868, CST), anti-p62 (8025, CST), anti-PINK1 (6946, CST), anti-Parkin (4211, CST), and anti-β-actin (ab8226, Abcam).
(In western blotting, separated proteins are transferred to a membrane and probed.)

For assay [2], the system named is LC3, p62, PINK1, Parkin in H9c2 cells. In words: Autophagy/mitophagy markers in H9c2 cells (Western blot, immunofluorescence). The assay is classed as cell-based. The following applies: 24 h. The procedure: as §1

pKd: −log10 of the molar value.

With `COC(=O)c1c(N)n(Cc2ccc(F)cc2)c2nc3ccccc3nc12` [SKLB-11A, Methyl 2-amino-1-(4-fluorobenzyl)-1H-pyrrolo[2,3-b]quinoxaline-3-carboxylate], the “binding to SIRT6” value on SIRT6 is “no binding”. For the same molecule, the pKd on wild-type SIRT3 was 4.48. The “effect on basal SIRT2 deacetylation activity” value on SIRT2 is reported as “no statistically significant effects”. On SIRT1, the “thermal stability of SIRT1 (CETSA)” value is “little effect on the thermal stability”. For the same molecule, in assay [1], the SIRT3 protein levels entry is “did not alter SIRT3 protein levels”; the “deacetylation of MnSOD at K122 and K68” value was “induced deacetylation at K122 and K68”. Moreover, in assay [2], the “LC3-II and p62 (autophagic flux)” value was “increased LC3-II expression and reduced p62 levels”; the “expression of PINK1 and Parkin” value is “increased the expression of PINK1 and Parkin”.
